# Results reported in patent US20060148649A1, “Substituted n-aryl nitrogen heterocycles” (priority 2003, published 2006).
# Tests used:
# [1] = log P determination by HPLC (EEC directive 79/831 Annex V.A8, reverse-phase C 18); conditions: for logP: HPLC, reverse-phase C 18, 43° C., acidic range: 0.1% aqueous phosphoric acid/acetonitrile gradient (marked a)); for chromatographic logP: reverse-phase C18 HPLC column, pH 2.3
# weeds [2] = assay: Pre-emergence test (herbicidal activity); assay type: in vivo; conditions: soil sprayed 24 hours after sowing, rated after three weeks
# [3] = tested on: crop plants, such as wheat; assay: Post-emergence test (crop plant tolerance); assay type: in vivo; conditions: some crop plants, e.g. wheat, rated after three weeks
# weeds [4] = assay: Post-emergence test (herbicidal activity); assay type: in vivo; conditions: test plants of 5-15 cm sprayed, rated after three weeks
# [5] = tested on: crop plants, such as corn and sugar beet; assay: Pre-emergence test (crop plant tolerance); assay type: in vivo; conditions: some crop plants, e.g. corn and sugar beet, rated after three weeks
Structure (SMILES),logP [1],tolerance by crop plants [3],tolerance by crop plants [5],further results
CCOC(=O)C1CCN(c2cc(N3C(=O)C4=C(CCCC4)C3=O)c(F)cc2C#N)CC1 [Example 59],logP = 3.77^a),–,–,–
N#Cc1cc(F)c(-n2c(=O)cc(C(F)(F)F)[nH]c2=O)cc1N1CCC(O)CC1 [Example 18],logP = 1.62^a),–,–,–
Cn1c(C(F)(F)F)cc(=O)n(-c2cc(N3CCC4(CC3)OCCCO4)c(C#N)cc2F)c1=O [Example 40],logP = 2.69^a),–,–,–
Cn1c(C(F)(F)F)cc(=O)n(-c2cc(N3CCC(O)CC3)c(C#N)cc2F)c1=O [Example 20],logP = 3.97^a),tolerated well,tolerated well,activity against weeds (degree of damage vs untreated control) (weeds [2]): very strong activity; activity against weeds (degree of damage vs untreated control) (weeds [4]): very strong activity
Cn1c(C(F)(F)F)nn(-c2cc(N3CCC4(CC3)OCCO4)c(C#N)cc2F)c1=O [Example 50],logP = 2.81^a),–,–,–
COC(=O)C1CCN(c2cc(-n3c(=O)cc(C(F)(F)F)n(C)c3=O)c(F)cc2C#N)CC1 [Example 28],logP = 2.88^a),tolerated well,tolerated well,activity against weeds (degree of damage vs untreated control) (weeds [2]): very strong activity; activity against weeds (degree of damage vs untreated control) (weeds [4]): very strong activity
CCOC(=O)C1CCCN1c1cc(-n2c(=O)cc(C(F)(F)F)n(C)c2=O)c(F)cc1C#N (stereo not drawn) [Example 84],logP = 3.01^a),–,–,–
CCOC(=O)CCN1CC(=O)N(c2cc(-n3c(=O)cc(C(F)(F)F)n(C)c3=O)c(F)cc2C#N)C1=O [Example 8],logP = 2.48^a),–,–,–
Cn1c(C(F)(F)F)cc(=O)n(-c2cc(N3CCC(O)C3)c(C#N)cc2F)c1=O (stereo not drawn) [Example 31],logP = 2.02^a),tolerated well,tolerated well,activity against weeds (degree of damage vs untreated control) (weeds [2]): very strong activity; activity against weeds (degree of damage vs untreated control) (weeds [4]): very strong activity
CCOC(=O)C1CCN(c2cc(-n3c(=O)cc(C(F)(F)F)n(N)c3=O)c(F)cc2C#N)CC1 [Example 16],logP = 2.89^a),tolerated well,tolerated well,activity against weeds (degree of damage vs untreated control) (weeds [2]): very strong activity; activity against weeds (degree of damage vs untreated control) (weeds [4]): very strong activity
CCOC(=O)C1CCN(c2cc(N3C(=O)C(C)=C(C)C3=O)c(F)cc2C#N)CC1 [Example 64],logP = 3.37^a),–,–,–
Cn1c(C(F)(F)F)cc(=O)n(-c2cc(N3C(=O)COC3=O)c(C#N)cc2F)c1=O [Example 12],–,tolerated well,–,–
N#Cc1cc(F)c(-n2c(=O)cc(C(F)(F)F)n(N)c2=O)cc1N1CCC2(CC1)OCCCO2 [Example 41],logP = 2.40^a),–,–,–
N#Cc1cc(F)c(-n2c(=O)cc(C(F)(F)F)[nH]c2=O)cc1N1CCC(C(F)(F)F)CC1 [Example 42],logP = 2.96^a),–,–,–
Cn1c(C(F)(F)F)cc(=O)n(-c2cc(N3CCC(C(F)(F)F)CC3)c(C#N)cc2F)c1=O [Example 37],logP = 3.52^a),–,–,–
"Cn1c(C(F)(F)F)cc(=O)n(-c2cc(N3C(=O)CN(C4CC4)C3=O)c(C#N)cc2F)c1=O [Example 3, 3-[4-cyano-2-fluoro-5-(1-cyclopropyl-2,4-dioxoimidazolidin-3-yl)phenyl]-1-methyl-6-trifluoromethyl-1H-pyrimidine-2,4-dione]",–,tolerated well,tolerated well,activity against weeds (degree of damage vs untreated control) (weeds [2]): very strong activity; chromatographic logP [1]: 2.25; activity against weeds (degree of damage vs untreated control) (weeds [4]): very strong activity
CCOC(=O)C1CCN(c2cc(-n3c(=O)cc(C(F)(F)F)[nH]c3=O)c(F)cc2C#N)CC1,–,–,–,melting point: 124.5 °C

Structure (SMILES),logP [1],tolerance by crop plants [3],tolerance by crop plants [5],further results
Cn1c(C(F)(F)F)cc(=O)n(-c2cc(-n3ccc(C=O)c3)c(C#N)cc2F)c1=O [Example 6],m.p.: 174 °C logP = 2.25^a),tolerated well,tolerated well,–
"CCOC(=O)C1CCN(c2cc(-n3c(=O)cc(C(F)(F)F)n(C)c3=O)c(F)cc2C#N)CC1 [Example 2, 3-[4-cyano-5-(4-ethoxycarbonylpiperidin-1-yl)-2-fluorophenyl]-1-methyl-6-trifluoromethyl-1H-pyrimidine-2,4-dione]",–,tolerated well,tolerated well,activity against weeds (degree of damage vs untreated control) (weeds [2]): very strong activity; chromatographic logP [1]: 3.23; activity against weeds (degree of damage vs untreated control) (weeds [4]): very strong activity
CCOC(=O)C1CCCCN1c1cc(-n2c(=O)cc(C(F)(F)F)n(C)c2=O)c(F)cc1Cl (stereo not drawn) [Example 69],logP = 4.07^a),–,–,–
Cn1c(C(F)(F)F)cc(=O)n(-c2cc(-n3cccc3)c(C#N)cc2F)c1=O [Example 5],–,tolerated well,tolerated well,–
CCOC(=O)C1CCCN(c2cc(-n3c(=O)cc(C(F)(F)F)n(C)c3=O)c(F)cc2Br)C1 (stereo not drawn) [Example 73],logP = 3.99^a),–,–,–
CCOC(=O)C1CCCN(c2cc(-n3c(=O)cc(C(F)(F)F)[nH]c3=O)c(F)cc2C#N)C1 (stereo not drawn) [Example 24],logP = 3.31^a),tolerated well,tolerated well,–
CCOC(=O)C1CCCCN1c1cc(-n2c(=O)cc(C(F)(F)F)n(C)c2=O)c(F)cc1Br (stereo not drawn) [Example 74],logP = 4.18^a),–,–,–
Cn1c(C(F)(F)F)cc(=O)n(-c2cc(N3C(=O)C4CCCCN4C3=O)c(C#N)cc2F)c1=O (stereo not drawn) [Example 9],logP = 2.42^a),tolerated well,tolerated well,–
Cn1c(C(F)(F)F)cc(=O)n(-c2cc(N3CCC4(CC3)OCCO4)c(C#N)cc2F)c1=O [Example 34],logP = 2.67^a),–,–,–
CC1OC(=O)N(c2cc(-n3c(=O)cc(C(F)(F)F)n(C)c3=O)c(F)cc2C#N)C1=O (stereo not drawn) [Example 10],logP = 2.49^a),tolerated well,–,–
CCOC(=O)C1CCCN(c2cc(-n3c(=O)cc(C(F)(F)F)n(C)c3=O)c(F)cc2Cl)C1 (stereo not drawn) [Example 68],logP = 3.87^a),–,–,–
N#Cc1cc(F)c(-n2c(=O)cc(C(F)(F)F)n(N)c2=O)cc1N1CCC2(CC1)OCCO2 [Example 35],logP = 2.37^a),–,–,–
CCOC(=O)C1CCCN1c1cc(-n2c(=O)cc(C(F)(F)F)n(C)c2=O)c(F)cc1Cl (stereo not drawn) [Example 83],logP = 3.49^a),–,–,–
Cn1c(C(F)(F)F)cc(=O)n(-c2cc(N3C(=O)CSC3=O)c(C#N)cc2F)c1=O [Example 11],logP = 2.36^a),tolerated well,–,activity against weeds (degree of damage vs untreated control) (weeds [4]): very strong activity
CCOC(=O)C1CCCN1c1cc(-n2c(=O)cc(C(F)(F)F)n(C)c2=O)c(F)cc1Br (stereo not drawn) [Example 82],logP = 3.61^a),–,–,–
Cc1ccc(C)n1-c1cc(-n2c(=O)cc(C(F)(F)F)n(C)c2=O)c(F)cc1C#N [Example 4],–,tolerated well,tolerated well,–
N#Cc1cc(F)c(-n2c(=O)cc(C(F)(F)F)[nH]c2=O)cc1N1CCC(C#N)CC1 [Example 38],logP = 2.08^a),–,–,–
